Experimental data published in PMC3367910 (PLoS ONE, 2012).

System: T1, chlorpyrifos hydrolase (CPH)
T1 construct: native enzyme purified from mycelial cell extract; N-terminal MEPDGELSALTQGANS; gene not cloned
Format: biochemical, Cladosporium cladosporioides

SMILES | Km
CCOP(=S)(OCC)Oc1nc(Cl)c(Cl)cc1Cl [Chlorpyrifos, O, O-diethyl O-(3,5,6-trichloro-2-pyridyl) phosphorothioate] | 6.8 ± 0.4 µM
COP(=S)(OC)Oc1ccc([N+](=O)[O-])cc1 [Methyl parathion] | 12.5 ± 1.4 µM
COP(N)(=O)SC (centres unmarked) [Methamidophos] | 31.8 ± 1.7 µM
CCOC(=O)CC(SP(=S)(OC)OC)C(=O)OCC (centres unmarked) [Malathion] | 44.4 ± 2.1 µM
CCOP(=S)(OCC)Oc1ccc([N+](=O)[O-])cc1 [Parathion] | 9.8 ± 0.3 µM
